# Laboratory results reported in PubChem BioAssay (NCI).
#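 GI50 = concentration required for 50% inhibition of growth. TGI marks complete inhibition of growth.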
# Columns and labels:
# Test in all cases: NCI-60 cell line screen, 384-well format
# OVCAR-8 ovarian = test system: OVCAR-8 ovarian
# HL-60(TB) leukemia = test system: HL-60(TB) leukemia
# HOP-62 NSCLC = test system: HOP-62 NSCLC
# IGROV1 ovarian = test system: IGROV1 ovarian
# MALME-3M melanoma = test system: MALME-3M melanoma
# M14 melanoma = test system: M14 melanoma
# TK-10 renal = test system: TK-10 renal
# SNB-75 CNS = test system: SNB-75 CNS
# 786-0 renal = test system: 786-0 renal
# A498 renal = test system: A498 renal
# EKVX NSCLC = test system: EKVX NSCLC
# NCI/ADR-RES ovarian = test system: NCI/ADR-RES ovarian
# MCF7 breast = test system: MCF7 breast
# MDA-MB-435 melanoma = test system: MDA-MB-435 melanoma
# SF-295 CNS = test system: SF-295 CNS
# SK-MEL-28 melanoma = test system: SK-MEL-28 melanoma
# SF-268 CNS = test system: SF-268 CNS
# ACHN renal = test system: ACHN renal
# PC-3 prostate = test system: PC-3 prostate
# OVCAR-5 ovarian = test system: OVCAR-5 ovarian
# MOLT-4 leukemia = test system: MOLT-4 leukemia
# T-47D breast = test system: T-47D breast
# SK-MEL-5 melanoma = test system: SK-MEL-5 melanoma
# OVCAR-3 ovarian = test system: OVCAR-3 ovarian
# U251 glioblastoma = test system: U251 glioblastoma
# NCI-H460 NSCLC = test system: NCI-H460 NSCLC
# HCC-2998 colon = test system: HCC-2998 colon
# NCI-H322M lung = test system: NCI-H322M lung
# BT-549 breast = test system: BT-549 breast
# SR leukemia = test system: SR leukemia
# SW-620 colon = test system: SW-620 colon
# HT29 colon = test system: HT29 colon
# MDA-MB-231 breast = test system: MDA-MB-231 breast
# NCI-H522 lung = test system: NCI-H522 lung
# K-562 leukemia = test system: K-562 leukemia
# UO-31 renal = test system: UO-31 renal
# SN12C renal = test system: SN12C renal
# NCI-H226 lung = test system: NCI-H226 lung
# CAKI-1 renal = test system: CAKI-1 renal
# SNB-19 CNS = test system: SNB-19 CNS
# LOX IMVI melanoma = test system: LOX IMVI melanoma
# UACC-62 melanoma = test system: UACC-62 melanoma
# UACC-257 melanoma = test system: UACC-257 melanoma
# KM12 colon = test system: KM12 colon
# CCRF-CEM leukemia = test system: CCRF-CEM leukemia
# A549 NSCLC = test system: A549 NSCLC
# RXF 393 renal = test system: RXF 393 renal
# HS 578T breast = test system: HS 578T breast
# NCI-H23 lung = test system: NCI-H23 lung
# MDA-MB-468 breast = test system: MDA-MB-468 breast
# HCT-15 colon = test system: HCT-15 colon
# DU-145 prostate = test system: DU-145 prostate
# OVCAR-4 ovarian = test system: OVCAR-4 ovarian
# SF-539 CNS = test system: SF-539 CNS
# SK-OV-3 ovarian = test system: SK-OV-3 ovarian
# COLO 205 colon = test system: COLO 205 colon
# RPMI-8226 leukemia = test system: RPMI-8226 leukemia
# HOP-92 NSCLC = test system: HOP-92 NSCLC
compound,measurement,setting,value
CCN1CCN(Cc2ccc(-c3cc4c(N[C@H](C)c5ccccc5)ncnc4[nH]3)cc2)CC1,GI50,OVCAR-8 ovarian,1.57 µM
same,TGI,OVCAR-8 ovarian,3.74 µM
same,GI50,HL-60(TB) leukemia,1.66 µM
same,TGI,HL-60(TB) leukemia,3.02 µM
same,GI50,HOP-62 NSCLC,1.66 µM
same,TGI,HOP-62 NSCLC,3.31 µM
same,GI50,IGROV1 ovarian,0.12 µM
same,TGI,IGROV1 ovarian,0.695 µM
same,GI50,MALME-3M melanoma,1.38 µM
same,TGI,MALME-3M melanoma,2.68 µM
same,GI50,M14 melanoma,1.59 µM
same,TGI,M14 melanoma,2.95 µM
same,GI50,TK-10 renal,0.389 µM
same,TGI,TK-10 renal,2.04 µM
same,GI50,SNB-75 CNS,2.04 µM
same,TGI,SNB-75 CNS,5.98 µM
same,GI50,786-0 renal,1.07 µM
same,TGI,786-0 renal,2.28 µM
same,GI50,A498 renal,1.22 µM
same,TGI,A498 renal,2.61 µM
same,GI50,EKVX NSCLC,0.0912 µM
same,TGI,EKVX NSCLC,2.34 µM
same,GI50,NCI/ADR-RES ovarian,2.02 µM
same,TGI,NCI/ADR-RES ovarian,6.11 µM
same,GI50,MCF7 breast,1.49 µM
same,TGI,MCF7 breast,2.97 µM
same,GI50,MDA-MB-435 melanoma,1.62 µM
same,TGI,MDA-MB-435 melanoma,3.04 µM
same,GI50,SF-295 CNS,1.71 µM
same,TGI,SF-295 CNS,3.23 µM
same,GI50,SK-MEL-28 melanoma,1.59 µM
same,TGI,SK-MEL-28 melanoma,2.94 µM
same,GI50,SF-268 CNS,1.49 µM
same,TGI,SF-268 CNS,3.35 µM
same,GI50,ACHN renal,0.089 µM
same,TGI,ACHN renal,1.52 µM
same,GI50,PC-3 prostate,1.85 µM
same,TGI,PC-3 prostate,8.64 µM
same,GI50,OVCAR-5 ovarian,0.44 µM
same,TGI,OVCAR-5 ovarian,2.79 µM
same,GI50,MOLT-4 leukemia,1.34 µM
same,TGI,MOLT-4 leukemia,2.62 µM
same,GI50,T-47D breast,0.439 µM
same,TGI,T-47D breast,2.59 µM
same,GI50,SK-MEL-5 melanoma,1.53 µM
same,TGI,SK-MEL-5 melanoma,2.87 µM
same,GI50,OVCAR-3 ovarian,1.32 µM
same,TGI,OVCAR-3 ovarian,5.36 µM
same,GI50,U251 glioblastoma,1.8 µM
same,TGI,U251 glioblastoma,3.62 µM
same,GI50,NCI-H460 NSCLC,1.75 µM
same,TGI,NCI-H460 NSCLC,3.57 µM
same,GI50,HCC-2998 colon,1.56 µM
same,TGI,HCC-2998 colon,3.04 µM
same,GI50,NCI-H322M lung,0.0517 µM
same,TGI,NCI-H322M lung,1.13 µM
same,GI50,BT-549 breast,1.59 µM
same,TGI,BT-549 breast,3.14 µM
same,GI50,SR leukemia,1.76 µM
same,TGI,SR leukemia,3.15 µM
same,GI50,SW-620 colon,1.77 µM
same,TGI,SW-620 colon,3.51 µM
same,GI50,HT29 colon,1.45 µM
same,TGI,HT29 colon,2.93 µM
same,GI50,MDA-MB-231 breast,1.56 µM
same,TGI,MDA-MB-231 breast,3.64 µM
same,GI50,NCI-H522 lung,0.111 µM
same,TGI,NCI-H522 lung,1.32 µM
same,GI50,K-562 leukemia,0.217 µM
same,TGI,K-562 leukemia,0.55 µM
same,GI50,UO-31 renal,1.33 µM
same,TGI,UO-31 renal,11.9 µM
same,GI50,SN12C renal,0.203 µM
same,TGI,SN12C renal,2.07 µM
same,GI50,NCI-H226 lung,1.1 µM
same,TGI,NCI-H226 lung,4.44 µM
same,GI50,CAKI-1 renal,0.299 µM
same,TGI,CAKI-1 renal,1.88 µM
same,GI50,SNB-19 CNS,2.46 µM
same,TGI,SNB-19 CNS,11.6 µM
same,GI50,LOX IMVI melanoma,1.57 µM
same,TGI,LOX IMVI melanoma,2.91 µM
same,GI50,UACC-62 melanoma,1.62 µM
same,TGI,UACC-62 melanoma,3 µM
same,GI50,UACC-257 melanoma,1.36 µM
same,TGI,UACC-257 melanoma,2.64 µM
same,GI50,KM12 colon,1.92 µM
same,TGI,KM12 colon,4.07 µM
same,GI50,CCRF-CEM leukemia,1.83 µM
same,TGI,CCRF-CEM leukemia,3.23 µM
same,GI50,A549 NSCLC,1.06 µM
same,TGI,A549 NSCLC,3.52 µM
same,GI50,RXF 393 renal,1.42 µM
same,TGI,RXF 393 renal,2.81 µM
same,GI50,HS 578T breast,1.48 µM
same,TGI,HS 578T breast,2.83 µM
same,GI50,NCI-H23 lung,1.52 µM
same,TGI,NCI-H23 lung,3.94 µM
same,GI50,MDA-MB-468 breast,0.0227 µM
same,TGI,MDA-MB-468 breast,0.06 µM
same,GI50,HCT-15 colon,1.36 µM
same,TGI,HCT-15 colon,2.75 µM
same,GI50,DU-145 prostate,1.54 µM
same,TGI,DU-145 prostate,10.8 µM
same,GI50,OVCAR-4 ovarian,1.56 µM
same,TGI,OVCAR-4 ovarian,5.25 µM
same,GI50,SF-539 CNS,1.56 µM
same,TGI,SF-539 CNS,2.91 µM
same,GI50,SK-OV-3 ovarian,0.349 µM
same,TGI,SK-OV-3 ovarian,1.71 µM
same,GI50,COLO 205 colon,1.78 µM
same,TGI,COLO 205 colon,3.29 µM
same,GI50,RPMI-8226 leukemia,1.28 µM
same,TGI,RPMI-8226 leukemia,2.55 µM
same,GI50,HOP-92 NSCLC,1.26 µM
same,TGI,HOP-92 NSCLC,2.64 µM
